Results from US12594307B2, “Compositions and methods of using inducible signaling for tunable dynamics in microbial communities” (priority 2019, dated 2026).
Entries after “also recorded” stand apart in the source; their conditions may differ.

Columns and labels:
lux QS system = assay: crosstalk of p-coumaric acid with the lux QS system, growth curves (plate reader); format: cell-based, E. coli; conditions: range of pCA concentrations; FIG. 9
Description: (§1) For plate reader experiments, the appropriate strains were seeded from a −80° C. glycerol stock into 3 ml LB with 0.2% glucose and appropriate antibiotics and incubated in a 37° C. shaking incubator. The following day, 2 μL of overnight culture were added to 200 μL fresh media containing appropriate antibiotics in a standard Falcon tissue culture 96-well flat bottom plate. Cells were incubated at 37° C. shaking in a Tecan Infinite M200 Pro. Cells were grown for about 12 hours. The optical density at 600 nm absorbance was measured every 10 minutes.
Experiments were performed to investigate the orthogonal properties of the iQS circuit by co-culturing the iSLC with a non-inducible SLC strain based on the lux QS system, one of the most commonly used and well understood QS systems in synthetic biology (FIG. 4A). […] Next, a previously described microfluidic chip was used (FIG. 2D and FIG. 7) to co-culture the iSLC and SLC strains (starting at 1:1 ratio) under a gradient of inducer concentrations. […] Without inducer, the quiescent iSLC strain was able to displace the SLC strain due to an advantage in population growth rate. At intermediate concentrations (15 nM), stable co-culture of both strains were maintained with independently sustained oscillations for more than 40 hours.

iSLC strain [1] = assay: cells survival assay (CFU count) of iSLC strain in liquid culture; format: cell-based, E. coli; conditions: 3 mL culture tubes, eight hours; 300 nM, 500 nM, 1 μM; independent of inducer concentration; FIG. 3D
Description: Cell viability assays to test the efficacy of iQS as a kill switch were done by measuring colony forming units (CFUs), following a protocol found in the literature. Cells were grown under survival conditions in LB with 0.2% glucose which inhibits the LuxI promoter thanks to the presence of a binding site for the CAP-CAMP activating complex. Following overnight growth, they were transferred into four cultures of fresh LB medium with 0.2% glucose, 300 nM p-coumaric acid, 500 nM p-coumaric acid and 1 μM p-coumaric acid, respectively. Samples were collected every 2 hours and serially diluted in PBS over a 7-log range and spotted (2 μL) onto LB agar plates with 0.2% glucose. The equations used arc: CFU/ml=(number of colonies)×(dilution factor)/0.002 mL, survival ratio (log 10)=log (CFU/ml with glucose)/(CFU/ml with p-coumaric acid).
Experiments were performed to investigate whether inducer concentrations could be modulated during culture to show the culture can switch between states of constant growth (circuit quiescence), synchronized oscillations in population density (cyclic cargo release) and inducible population death (kill switch). To confirm this principle, experiments were performed to test the ability to drive the population dynamics from state one (population growth) to state three (population death) through pCA induction (FIG. 3A). […]

iQS strain = iQS strain fluorescence response to pCA, microwell plate reader; format: cell-based, Escherichia Coli; conditions: FIG. 1D
Description: To design an exemplary iQS system, the two-step pathway which converts pCA into p-coumaroyl-HSL (pC-HSL) was genetically reconstructed through the production of the intermediate molecule p-coumaroyl-CoA (FIG. 1A). The first conversion is catalyzed by the p-coumaric acid-CoA ligase encoded by the 4CL2nt gene from the plant Nicotiana tabacum while the second step is catalyzed by the RpaI synthase. Additionally, superfolder green fluorescent protein (sfGFP) was added to be able to monitor the inducible dynamics. […] Escherichia Coli was chosen as the host chassis for the double plasmid circuit. The methods described in Example 1 are also applicable to Examples 2, 3, and 4.
(§2) The iSLC and SLC strains were both cultured in lysogeny broth (LB) media with 50 μg mL^−1 kanamycin, 34 μg mL^−1 chloramphenicol and 0.2% glucose for strains containing ColE1 origin and p15A origin plasmids in a 37° C. shaking incubator. Plasmid pTD103 RpaR-RpaI-LAA-sfGFP^21, ptD103-CFP were constructed by as described in previous studies (see, e.g., FIG. 11). Both plasmids pAM014 and pAM021 were obtained by inserting the 4CL2nt gene under the constitutive promoter J23106 from the Anderson promoter library. The 4CL2nt gene and the promoter were synthesized with overlapping PCR of long oligonucleotides (IDT). All plasmids were constructed by Gibson assembly followed by transformation into DH5α (Thermofisher) chemically competent E. coli. All plasmids were verified by Sanger sequencing before transformation into E. coli strain MG1655.
as §1

iSLC strain [2] = assay: iSLC kill switch induction in microfluidic traps; format: cell-based, E. coli; conditions: induction with 500 nM pCA after saturation of traps; 406 traps
Source text: (§3) The microscopy and microfluidics techniques used are similar to those previously reported. The microfluidic devices were constructed from PDMS (polydimethylsiloxane), which was molded and baked on a silicon wafer with micronscale features formed by crosslinked photoresist. Once the PDMS hardened, it was peeled off, and individual devices were cut out. In order to connect fluid lines to the device, holes where punched in correspondence of the inlets and outlets of the device. Afterwards, the devices were bonded onto glass slides using plasma activation. Before each experiment, the devices were left for 30 minutes in a vacuum chamber. Meanwhile, 1 mL of overnight cell culture was spun down by centrifugation and re-suspended in 10 μL of fresh media with appropriate antibiotics. […] At 4× magnification fluorescence exposure times were 2 seconds at 30% intensity for both gfp and cfp while at 10× magnification they were 200 us at 30% intensity for both GFP and CFP. […]
(§4) Fluorescence intensity profiles were obtained by analyzing frames from the fluorescent channels. The mean fluorescence values were calculated by drawing a rectangle surrounding each trap individually and extracting the z-axis profile on ImageJ. Fluorescence values shown in FIG. 2 were normalized by dividing all data by a constant factor. […]

iSLC strain [3] = assay: iSLC strain population dynamics in microfluidic inducer gradient device; format: cell-based, E. coli
Description: as §2
The microscopy and microfluidics techniques used are similar to those previously reported. The microfluidic devices were constructed from PDMS (polydimethylsiloxane), which was molded and baked on a silicon wafer with micronscale features formed by crosslinked photoresist. Once the PDMS hardened, it was peeled off, and individual devices were cut out. In order to connect fluid lines to the device, holes where punched in correspondence of the inlets and outlets of the device. Afterwards, the devices were bonded onto glass slides using plasma activation. […]

[4] = system: iSLC and SLC strains co-culture; assay: co-culture of iSLC and SLC strains under a gradient of inducer concentrations (microfluidics); format: cell-based, E. coli
Source text: as §3, with “antibiotics. After taking the device out of the vacuum chamber, a single droplet of resuspended cells was positioned in correspondence of the outlet opening. Similarly, droplets of sterile fresh media were placed in correspondence of the inlets openings. In all cases, 0.075% Tween20 was added to the medium to prevent cells from sticking to the PDMS walls. After all chip features were wetted, the fluids lines were plugged in and the height of the inlet was raised 10 to 40 cm above the device. The outlet syringe was instead placed at the same height of the device. For co-culturing experiments in FIG. 4, cells were cultured individually overnight and eventually spun down and re-suspended together (1:1 ratio) allowing for a single droplet to be loaded on the device.” for “antibiotics.”
as §4

wild type E. Coli strain = assay: wild type E. Coli growth curves in a range of p-coumaric acid concentrations (plate reader); format: cell-based; conditions: within the characterized concentration range; FIG. 1E
Description: as §1

SMILES: O=C(O)/C=C/c1ccc(O)cc1 [pCA, p-coumaric acid]
- crosstalk with lux QS system / growth curves (lux QS system): absence of crosstalk; also recorded: growth curves are unaffected
- cell survival (CFU) (iSLC strain [1]): several order of magnitude decrease
- iQS circuit behavior at intermediate inducer levels (iQS strain; 1 nM and 10 nM pCA): population-dependent switch-like behavior
- iQS circuit behavior at high inducer concentrations (iQS strain; 100 nM to 10 μM pCA): linear relationship between fluorescence expression and population density
- optical density threshold of steep increase in fluorescence signal (iQS strain; intermediate levels (1 nM and 10 nM) pCA): around 0.3
- microfluidic traps with cell death after synchronized lysis event (iSLC strain [2]): more than 97%
- fraction of all microfluidics traps able to survive (iSLC strain [3]; high pCA concentrations 110 nM to 1 μM, universal cell lysis): < 3%
- average period of sustained synchronized oscillations (iSLC strain [3]; intermediate inducer concentration 15 nM): approximately 200 minutes
- duration of stable co-culture with independently sustained oscillations ([4]; 15 nM, starting 1:1 ratio): more than 40 hours
- co-culture outcome at high pCA concentration ([4]; 110 nM, starting 1:1 ratio): death of all iSLC cells
- co-culture outcome at inducer values higher than 340 nM ([4]; higher than 340 nM, FIG. 10): iSLC death and SLC takeover
- toxicity to wild type E. Coli (growth curves) (wild type E. Coli strain): not toxic
